Measured values taken from US20240409536A1, “COMPOUNDS AND METHODS FOR MODULATING SPLICING” (REMIX THERAPEUTICS INC., priority 2021, published 2024).

Experiments:
MYB mRNA = experiment: Gene panel canonical junction qPCR assay, MYB CJ mRNA decrease; assay type: cell-based, human; conditions: Homo sapiens, canonical junction qPCR, read-out: MYB IC50 (decrease in CJ mRNA levels)
Summary of the method: (§1)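 IC50 values describe loss of canonical-junction transcript, fitted by 4-parameter logistic to percent response derived from fixed ΔCt windows. Read-out: RT-qPCR on lysates of compound-treated K562 or A673 cells, probes overlapping the exon junction, ΔΔCt versus housekeeping gene and DMSO control.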

Target C mRNA = experiment: Gene panel canonical junction qPCR assay, Target C CJ mRNA decrease; assay type: cell-based; conditions: Homo sapiens, canonical junction qPCR, read-out: Target C IC50 (decrease in CJ mRNA levels)
Summary of the method: as §1

HTT mRNA = experiment: Splicing RT-qPCR assay, HTT canonical (CJ) and alternative (AJ) junction mRNA; assay type: cell-based; conditions: Homo sapiens, A673 or K562 cells, 24 hours
Summary of the method: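 Canonical and alternative junction mRNAs measured by cell-lysate one-step RT-qPCR, normalized to PPIA in A673 or GAPDH/GUSB in K562. Cells received compound for 24 h at 37 °C, 5% CO2, 11-point 3-fold series from 10 uM final top dose, DMSO at most 0.25%.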

K562 cells = experiment: Cell Titer Glo 2.0 cell viability assay in K562 cells; conditions: 72 hours

IC50 (MYB mRNA): < 0.1 µM
IC50 (Target C mRNA): 1 to 10 µM
IC50 (HTT mRNA; decrease in canonical junction mRNA): 0.1 to 1 µM
SMILES: Cc1cn2cc(NC(=O)c3ccc(N4CCN5CCC[C@@H]5C4)c4ccnnc34)cc(F)c2n1 [Compound 153]
AC50 (HTT mRNA; increase in alternative junction mRNA): 0.1 to 1 µM
Viability (K562 cells): B (B represents 100-1000 nM)
